Experimental data as given in patent US20110071177A1, “FUNGICIDAL ACTIVE SUBSTANCE COMBINATION” (Bayer CropScience AG, priority 2005, published 2011).

Tested on: Sphaerotheca fuliginea
Experiment: Sphaerotheca test (cucumber) / protective
Assay type: in vivo, Sphaerotheca fuliginea on cucumber
Conditions: application rate 4 ppm, evaluation 7 days after inoculation
Protocol: Solvents: 24.5 parts by weight of acetone • 24.5 parts by weight of dimethylacetamide Emulsifier: 1 part by weight of alkylaryl polyglycol ether To produce a suitable preparation of active compound, 1 part by weight of active compound or active compound combination is mixed with the stated amounts of solvents and emulsifier, and the concentrate is diluted with water to the desired concentration, or a commercial formulation of active compound or active compound combination with water is diluted with water to the desired concentration. To test for protective activity, young plants are sprayed with the active compound preparation at the stated application rate. After the spray coating has dried on, the plants are inoculated with an aqueous spore suspension of Sphaerotheca fuliginea. The plants are then placed in a greenhouse at about 23° C. and a relative atmospheric humidity of about 70%. Evaluation is carried out 7 days after inoculation. Here, 0% means an efficacy which corresponds to that of the control, whereas an efficacy of 100% means that no infestation is observed.

CO/N=C(/C(=O)OC)c1ccccc1CO/N=C(\C)c1cccc(C(F)(F)F)c1 [2-[α-{[(α-methyl-3-trifluoromethylbenzyl)imino]oxy}-o-tolyl]glyoxylic acid methyl ester O-methyloxime] was tested, and the “% efficacy” value was 10%.
